Test results as given in patent US9073895B2 (Boehringer Ingelheim International GmbH, priority 2010, dated 2015).
pIC50: −log10 of the molar value.

Molecular target: T1, recombinant human FLAP protein (Homo sapiens, UniProt P20292)
T1 construct: made in house; host or cells: Sf9 insect cells (membrane fraction, 100,000 x g pellet)
T1 sequence (P20292 1-161): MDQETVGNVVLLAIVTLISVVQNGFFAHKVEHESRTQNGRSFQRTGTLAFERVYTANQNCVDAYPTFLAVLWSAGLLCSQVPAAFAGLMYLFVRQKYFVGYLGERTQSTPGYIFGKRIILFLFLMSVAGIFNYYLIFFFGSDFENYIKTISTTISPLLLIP
Experiment: FLAP binding assay (SPA, displacement of [125I]L-691,831)
Details: membranes of sf9 cells expressing human FLAP, [125I]L-691,831 probe; read-out: hFLAP binding IC50
Protocol: Compounds are assessed for the ability to bind to FLAP in a binding assay that measures compound-specific displacement of an iodinated (^125I) FLAP inhibitor via a Scintillation Proximity Assay format (adapted from S. Charleson et al., Mol. Pharmacol., 1992, 41, 873-879).
Cell pellets produced from sf9 insect cells expressing recombinant human FLAP protein are resuspended in buffer A [15 mM Tris-HCl (pH 7.5), 2 mM MgCl2, 0.3 mM EDTA, 1 mM PMSF]. The cells are lysed with a Dounce homogenizer and the material is centrifuged at 10,000×g for 10 minutes. The supernatant is then collected and centrifuged at 100,000×g for 60 minutes. To prepare membrane protein for an assay, an aliquot of the 100,000×g pellet is resuspended in 1 ml of buffer A, Dounce homogenized, and finally subjected to polytron mixing (30 seconds). Membrane protein (25 μl, 5 μg) is mixed with WGA SPA beads (Amersham) and stirred for 1 h. To an assay plate (Perkin Elmer FlexiPlate) is added 25 μl of test compound prepared in Binding buffer [100 mM Tris (pH 7.5), 140 mM NaCl, 5% glycerol, 2 mM EDTA, 0.5 mM TCEP, 0.05% Tween 20], 25 μl of [^125I]L-691,831 (an iodinated analog of MK-591, Charleson et al. Mol. Pharmacol., 41, 873-879, 1992) and finally 50 μl of the bead/protein mixture. (final concentrations: beads, 200 μg/well; protein, 5μg/well; [^125I] probe, 0 08 nM/well(17 nCi/well). The plates are shaken for 2 h before reading on a Microbeta plate reader. Non-specific binding is determined by the addition of 10 μM cold L-691,831 compound.

Compound	pIC50
Nc1ncc(-c2ccc(C3(C(=O)Nc4ccc5c(c4)CCC5)CCOCC3)cc2)cn1 [Example 6, 4-[4-(2-aminopyrimidin-5-yl)phenyl]-N-(2,3-dihydro-1H-inden-5-yl)tetrahydro-2H-pyran-4-carboxamide]	6.82
Nc1ncc(-c2ccc(C3(C(=O)Nc4ccc5c(c4)OCO5)CCOCC3)cc2)cn1 [Example 9, 4-[4-(2-aminopyrimidin-5-yl)phenyl]-N-(1,3-benzodioxol-5-yl)tetrahydro-2H-pyran-4-carboxamide]	6.70
Cc1cc(C)nc(NC(=O)C2(c3ccc(-c4cnc(N)nc4)cc3)CCOCC2)c1 [Example 10, 4-[4-(2-aminopyrimidin-5-yl)phenyl]-N-(4,6-dimethylpyridin-2-yl)tetrahydro-2H-pyran-4-carboxamide]	6.62
CCOC(=O)c1sc(NC(=O)C2(c3ccc(-c4cnc(N)nc4)cc3)CCOCC2)nc1-c1ccccc1 [Example 19, ethyl 2-[({4-[4-(2-aminopyrimidin-5-yl)phenyl]tetrahydro-2H-pyran-4-yl}carbonyl)amino]-4-phenyl-1,3-thiazole-5-carboxylate]	6.92
Nc1ncc(-c2ccc(C3(C(=O)Nc4cccc(S(=O)(=O)N5CCOCC5)c4)CCOCC3)cc2)cn1 [Example 35, 4-[4-(2-aminopyrimidin-5-yl)phenyl]-N-[3-(mopholin-4-ylsulfonyl)phenyl]tetrahydro-2H-pyran-4-carboxamide]	6.41
CC(=O)N1CCc2cc(NC(=O)C3(c4ccc(-c5cnc(N)nc5)cc4)CCOCC3)ccc21 [Example 42, N-(1-acetyl-2,3-dihydro-1H-indol-5-yl)-4-[4-(2-aminopyrimidin-5-yl)phenyl]tetrahydro-2H-pyran-4-carboxamide]	6.51
Nc1ncc(-c2ccc(C3(C(=O)Nc4cccc(CN5CCCC5)c4)CCOCC3)cc2)cn1 [Example 50, 4-[4-(2-aminopyrimidin-5-yl)phenyl]-N-[3-(pyrrolidin-1-ylmethyl)phenyl]tetrahydro-2H-pyran-4-carboxamide]	6.36
CN1CCN(c2cccc(NC(=O)C3(c4ccc(-c5cnc(N)nc5)cc4)CCOCC3)c2)CC1 [Example 53, 4-[4-(2-aminopyrimidin-5-yl)phenyl]-N-[3-(4-methylpiperazin-1-yl)phenyl]tetrahydro-2H-pyran-4-carboxamide]	6.55
Nc1ncc(-c2ccc(C3(C(=O)Nc4cc(-c5ccccn5)no4)CCOCC3)cc2)cn1 [Example 56, 4-[4-(2-aminopyrimidin-5-yl)phenyl]-N-[3-(pyridin-2-yl)-1,2-oxazol-5-yl]tetrahydro-2H-pyran-4-carboxamide]	6.42
Nc1ncc(-c2ccc(C3(C(=O)Nc4cc(-c5cccnc5)no4)CCOCC3)cc2)cn1 [Example 57, 4-[4-(2-aminopyrimidin-5-yl)phenyl]-N-[3-(pyridin-3-yl)-1,2-oxazol-5-yl]tetrahydro-2H-pyran-4-carboxamide]	6.59
Cn1c(=O)c2cc(NC(=O)C3(c4ccc(-c5cnc(N)nc5)cc4)CCOCC3)cnc2n(C)c1=O [Example 69, 4-[4-(2-aminopyrimidin-5-yl)phenyl]-N-(1,3-dimethyl-2,4-dioxo-1,2,3,4-tetrahydropyrido[2,3-d]pyrimidin-6-yl)tetrahydro-2H-pyran-4-carboxamide]	6.59
CCOC(=O)c1ccnc(NC(=O)C2(c3ccc(-c4cnc(N)nc4)cc3)CCOCC2)c1 [Example 84, ethyl 2-[({4-[4-(2-aminopyrimidin-5-yl)phenyl]tetrahydro-2H-pyran-4-yl}carbonyl)amino]pyridine-4-carboxylate]	6.74
Nc1ncc(-c2ccc(C3(C(=O)Nc4ccc(C(=O)O)cn4)CCC3)cc2)cn1 [Example 96, 6-[({1-[4-(2-aminopyrimidin-5-yl)phenyl]cyclobutyl}carbonyl)amino]pyridine-3-carboxylic acid]	7.59
Cc1cccc(-c2cnc(NC(=O)C3(c4ccc(-c5cnc(N)nc5)cc4)CCOCC3)nc2)c1 [Example 156, 4-[4-(2-aminopyrimidin-5-yl)phenyl]-N-[5-(3-methylphenyl)pyrimidin-2-yl]tetrahydro-2H-pyran-4-carboxamide]	6.31

Now from value to compound:

pIC50	Compound
6.48	CC(C)(C)c1ccc(NC(=O)C2(c3ccc(-c4cnc(N)nc4)cc3)CCOCC2)cc1 [Example 17, 4-[4-(2-aminopyrimidin-5-yl)phenyl]-N-(4-tert-butylphenyl)tetrahydro-2H-pyran-4-carboxamide]
6.92	Nc1ncc(-c2ccc(C3(C(=O)Nc4ccc(Cc5ccncc5)cc4)CCOCC3)cc2)cn1 [Example 28, 4-[4-(2-aminopyrimidin-5-yl)phenyl]-N-[4-(pyridin-4-ylmethyl)phenyl]tetrahydro-2H-pyran-4-carboxamide]
6.72	CC(=O)N1CCc2ccc(NC(=O)C3(c4ccc(-c5cnc(N)nc5)cc4)CCOCC3)cc21 [Example 29, N-(1-acetyl-2,3-dihydro-1H-indol-6-yl)-4-[4-(2-aminopyrimidin-5-yl)phenyl]tetrahydro-2H-pyran-4-carboxamide]
6.85	Nc1ncc(-c2ccc(C3(C(=O)Nc4cc(C(F)(F)F)ccn4)CCOCC3)cc2)cn1 [Example 31, 4-[4-(2-aminopyrimidin-5-yl)phenyl]-N-[4-(trifluoromethyl)pyridin-2-yl]tetrahydro-2H-pyran-4-carboxamide]
6.57	Nc1ncc(-c2ccc(C3(C(=O)Nc4cccc(S(=O)(=O)C(F)(F)F)c4)CCOCC3)cc2)cn1 [Example 44, 4-[4-(2-aminopyrimidin-5-yl)phenyl]-N-{3-[(trifluoromethyl)sulfonyl]phenyl}tetrahydro-2H-pyran-4-carboxamide]
6.96	CN(C)S(=O)(=O)c1cccc(NC(=O)C2(c3ccc(-c4cnc(N)nc4)cc3)CCOCC2)c1 [Example 77, 4-[4-(2-aminopyrimidin-5-yl)phenyl]-N-[3-(dimethylsulfamoyl)phenyl] tetrahydro-2H-pyran-4-carboxamide]
7.33	Nc1ncc(-c2ccc(C3(C(=O)Nc4ccc(O)c(C(=O)O)c4)CCC3)cc2)cn1 [Example 101, 5-[({1-[4-(2-aminopyrimidin-5-yl)phenyl]cyclobutyl}carbonyl)amino]-2-hydroxybenzoic acid]
7.76	CS(=O)(=O)NC(=O)c1ccc(NC(=O)C2(c3ccc(-c4cnc(N)nc4)cc3)CCC2)nc1 [Example 105, 6-[({1-[4-(2-aminopyrimidin-5-yl)phenyl]cyclobutyl}carbonyl)amino]-N-(methylsulfonyl)pyridine-3-carboxamide]
6.96	Cc1ccc(NC(=O)C2(c3ccc(-c4cnc(N)nc4)cc3)CCOCC2)nc1 [Example 139, 4-[4-(2-aminopyrimidin-5-yl)phenyl]-N-(5-methylpyridin-2-yl)tetrahydro-2H-pyran-4-carboxamide]
6.64	Cc1ccnc(NC(=O)C2(c3ccc(-c4cnc(N)nc4)cc3)CCOCC2)c1 [Example 140, 4-[4-(2-aminopyrimidin-5-yl)phenyl]-N-(4-methylpyridin-2-yl)tetrahydro-2H-pyran-4-carboxamide]
6.72	Cc1cccc(NC(=O)C2(c3ccc(-c4cnc(N)nc4)cc3)CCOCC2)n1 [Example 141, 4-[4-(2-aminopyrimidin-5-yl)phenyl]-N-(6-methylpyridin-2-yl)tetrahydro-2H-pyran-4-carboxamide]
